Assay results from patent US20150337003A1, “ABIRATERONE AND ANALOGS THEREOF FOR THE TREATMENT OF DISEASES ASSOCIATED WITH CORTISOL OVERPRODUCTION” (CORTENDO AB (PUBL), priority 2013, published 2015).
Values after ≈ are worked out from the molar mass of the structure shown.

How the values were obtained:
Cyp2C9 = Cyp2C9 (Homo sapiens, UniProt P11712); assay: in vitro enzyme profile: Cyp2C9 inhibition; format: in vitro ADME
[1] = GPLM t1/2 (microsomal stability); format: in vitro ADME; conditions: guinea pig, liver microsomes
Solubility = format: physicochemical
Cyp21 = molecular target: T1, Cyp21 (Homo sapiens, UniProt P08686); assay: in vitro enzyme profile: Cyp21 inhibition; format: biochemical
T1 sequence (P08686 1-495): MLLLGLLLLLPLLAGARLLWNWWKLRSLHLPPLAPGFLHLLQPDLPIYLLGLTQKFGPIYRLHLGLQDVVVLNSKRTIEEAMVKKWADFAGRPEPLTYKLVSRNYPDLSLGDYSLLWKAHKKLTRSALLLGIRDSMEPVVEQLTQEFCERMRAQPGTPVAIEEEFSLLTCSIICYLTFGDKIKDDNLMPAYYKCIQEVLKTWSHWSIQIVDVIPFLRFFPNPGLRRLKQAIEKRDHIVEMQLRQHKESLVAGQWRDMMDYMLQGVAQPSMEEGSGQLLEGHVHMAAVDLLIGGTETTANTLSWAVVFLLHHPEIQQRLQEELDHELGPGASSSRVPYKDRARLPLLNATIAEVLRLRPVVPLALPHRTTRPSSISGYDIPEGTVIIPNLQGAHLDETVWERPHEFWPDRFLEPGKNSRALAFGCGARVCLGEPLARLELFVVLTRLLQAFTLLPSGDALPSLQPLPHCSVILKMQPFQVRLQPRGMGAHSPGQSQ

[2] = HLM t1/2 (microsomal stability); format: in vitro ADME; conditions: human, liver microsomes
Cyp2D6 = Cyp2D6 (Homo sapiens, UniProt P10635); assay: in vitro enzyme profile: Cyp2D6 inhibition; format: in vitro ADME
Sequence of Cyp2D6 (P10635 whole entry): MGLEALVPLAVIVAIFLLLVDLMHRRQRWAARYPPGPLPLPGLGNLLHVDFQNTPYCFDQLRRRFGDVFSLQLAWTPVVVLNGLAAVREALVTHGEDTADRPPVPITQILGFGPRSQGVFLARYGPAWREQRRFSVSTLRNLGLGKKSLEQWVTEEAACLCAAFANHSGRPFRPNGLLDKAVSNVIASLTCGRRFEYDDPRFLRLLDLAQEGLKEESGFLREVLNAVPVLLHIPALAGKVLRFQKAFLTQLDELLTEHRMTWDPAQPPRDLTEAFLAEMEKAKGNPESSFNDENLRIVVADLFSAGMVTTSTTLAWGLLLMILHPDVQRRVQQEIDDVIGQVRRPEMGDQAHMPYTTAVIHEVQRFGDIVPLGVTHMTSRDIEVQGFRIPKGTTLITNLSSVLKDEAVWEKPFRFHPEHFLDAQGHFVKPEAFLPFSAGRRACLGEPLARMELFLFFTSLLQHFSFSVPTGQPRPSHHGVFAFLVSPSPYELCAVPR

[3] = system: cortisol and testosterone after ACTH stimulation; assay: elevation of cortisol and testosterone after ACTH stimulation in male Guinea pigs; format: in vivo, Guinea pig; conditions: for Cortisol, plasma / testosterone, plasma / Cortisol, plasma, Mean / testosterone, plasma, Mean: 25 IU/kg ACTH + 100 mg/kg PO; for Cortisol, plasma, Mean: mean of 4 Guinea pigs
Description: Each animal was dosed by oral gavage according to the following table at −0.5 hr, and then dosed by intramuscular injection with ACTH 25 IU/kg at 0 hr.
Animals were sedated under general inhalant anesthesia (3% isoflurane) and blood samples were retrieved at 1, 2 and 4 hrs via saphenous vein. Blood aliquots (400 uL) were collected in tubes coated with K2-EDTA, mixed gently, then kept on ice and centrifuged at 2,000 g for 5 minutes at 4° C. within 15 minutes of collection. The plasma was then harvested and kept frozen at −80° C. until further processing.

Cyp11 = assay: in vitro enzyme profile: Cyp11 inhibition; format: biochemical
Cyp17 = molecular target: T2, Cyp17 (Homo sapiens, UniProt P05093); assay: biochemical; conditions: read-out: Cyp17 IC60 (nM)
T2 sequence (P05093 1-508): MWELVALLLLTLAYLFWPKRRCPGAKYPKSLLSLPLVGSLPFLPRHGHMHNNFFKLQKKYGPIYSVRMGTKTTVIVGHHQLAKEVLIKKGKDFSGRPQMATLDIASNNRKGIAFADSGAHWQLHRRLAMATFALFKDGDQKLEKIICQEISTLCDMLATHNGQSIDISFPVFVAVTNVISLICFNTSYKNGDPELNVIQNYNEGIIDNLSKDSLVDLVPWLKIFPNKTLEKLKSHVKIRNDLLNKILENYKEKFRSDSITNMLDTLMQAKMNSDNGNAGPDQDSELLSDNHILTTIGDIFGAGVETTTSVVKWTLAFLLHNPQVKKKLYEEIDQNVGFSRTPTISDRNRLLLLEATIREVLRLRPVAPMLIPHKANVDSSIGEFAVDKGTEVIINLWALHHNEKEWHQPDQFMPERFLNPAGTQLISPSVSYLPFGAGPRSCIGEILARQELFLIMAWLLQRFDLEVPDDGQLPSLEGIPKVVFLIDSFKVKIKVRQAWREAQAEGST

Cyp3A4 = Cyp3A4 (Homo sapiens, UniProt P08684); assay: in vitro enzyme profile: Cyp3A4 inhibition; format: in vitro ADME
Sequence of Cyp3A4 (P08684 whole entry): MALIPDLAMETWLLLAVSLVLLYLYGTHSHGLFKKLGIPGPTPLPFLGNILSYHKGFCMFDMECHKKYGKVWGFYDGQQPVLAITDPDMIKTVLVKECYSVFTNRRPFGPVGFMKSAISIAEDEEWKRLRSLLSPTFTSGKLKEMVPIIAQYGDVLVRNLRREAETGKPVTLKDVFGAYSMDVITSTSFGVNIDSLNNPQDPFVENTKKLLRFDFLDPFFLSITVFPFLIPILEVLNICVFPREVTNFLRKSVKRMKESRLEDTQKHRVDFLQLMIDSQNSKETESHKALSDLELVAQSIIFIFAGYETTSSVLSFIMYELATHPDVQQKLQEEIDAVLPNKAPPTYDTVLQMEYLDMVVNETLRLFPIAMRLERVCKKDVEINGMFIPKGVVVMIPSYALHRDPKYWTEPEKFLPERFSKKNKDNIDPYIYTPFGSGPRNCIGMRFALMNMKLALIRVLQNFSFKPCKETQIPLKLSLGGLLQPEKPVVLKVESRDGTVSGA

[4] = male Guinea pigs, ACTH stimulation, 100 mg/kg PO, vs vehicle

Sequence of Cyp2C9 (P11712 whole entry): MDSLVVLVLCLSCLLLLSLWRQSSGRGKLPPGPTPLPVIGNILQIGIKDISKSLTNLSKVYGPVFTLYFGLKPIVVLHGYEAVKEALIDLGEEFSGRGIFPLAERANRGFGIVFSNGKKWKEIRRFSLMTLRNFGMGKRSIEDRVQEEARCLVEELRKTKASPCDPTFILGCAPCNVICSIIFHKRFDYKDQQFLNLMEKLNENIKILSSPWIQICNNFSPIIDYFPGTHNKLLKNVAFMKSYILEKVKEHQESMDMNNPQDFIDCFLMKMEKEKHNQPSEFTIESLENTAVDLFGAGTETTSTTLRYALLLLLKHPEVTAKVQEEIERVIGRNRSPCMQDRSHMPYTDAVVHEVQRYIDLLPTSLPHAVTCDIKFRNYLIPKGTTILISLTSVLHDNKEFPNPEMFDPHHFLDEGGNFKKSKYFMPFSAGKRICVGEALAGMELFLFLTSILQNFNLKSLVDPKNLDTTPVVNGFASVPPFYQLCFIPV

SMILES: C[C@]12CC[C@H](O)CC1=CC[C@@H]1[C@@H]2CC[C@]2(C)C(c3cccnc3)=CC[C@@H]12 [abiraterone, (3S,8R,9S,10R,13S,14S)-10,13-dimethyl-17-(pyridin-3-yl)-2,3,4,7,8,9,10,11,12,13,14,15-dodecahydro-1H-cyclopenta[a]phenanthren-3-ol]
- Cyp2C9 IC60 (Cyp2C9): 2000 nM
- half-life [1]: 7.7 min
- solubility (Solubility): 1 µM (≈ 0.35 µg/mL)
- IC60 (Cyp21): 1550 nM
- half-life [2]: 60 min
- Cyp2D6 IC60 (Cyp2D6): 2000 nM
- Cortisol, plasma ([3]; Guinea pig#19, 1 hr): 692 ng/mL
- testosterone, plasma ([3]; Guinea pig#19, 1 hr): BQL
- Cortisol, plasma ([3]; Guinea pig#19, 2 hr): 574 ng/mL
- testosterone, plasma ([3]; Guinea pig#19, 2 hr): BQL
- Cortisol, plasma ([3]; Guinea pig#19, 4 hr): 320 ng/mL
- testosterone, plasma ([3]; Guinea pig#19, 4 hr): 0.328 ng/mL
- Cortisol, plasma ([3]; Guinea pig#20, 1 hr): 821 ng/mL
- testosterone, plasma ([3]; Guinea pig#20, 1 hr): BQL
- Cortisol, plasma ([3]; Guinea pig#20, 2 hr): 720 ng/mL
- testosterone, plasma ([3]; Guinea pig#20, 2 hr): 0.473 ng/mL
- Cortisol, plasma ([3]; Guinea pig#20, 4 hr): 461 ng/mL
- testosterone, plasma ([3]; Guinea pig#20, 4 hr): BQL
- Cortisol, plasma ([3]; Guinea pig#21, 1 hr): 659 ng/mL
- testosterone, plasma ([3]; Guinea pig#21, 1 hr): BQL
- Cortisol, plasma ([3]; Guinea pig#21, 2 hr): 470 ng/mL
- testosterone, plasma ([3]; Guinea pig#21, 2 hr): BQL
- Cortisol, plasma ([3]; Guinea pig#21, 4 hr): 325 ng/mL
- testosterone, plasma ([3]; Guinea pig#21, 4 hr): BQL
- Cortisol, plasma ([3]; Guinea pig#22, 1 hr): 970 ng/mL
- testosterone, plasma ([3]; Guinea pig#22, 1 hr): 0.501 ng/mL
- Cortisol, plasma ([3]; Guinea pig#22, 2 hr): 876 ng/mL
- testosterone, plasma ([3]; Guinea pig#22, 2 hr): 0.520 ng/mL
- Cortisol, plasma ([3]; Guinea pig#22, 4 hr): 529 ng/mL
- testosterone, plasma ([3]; Guinea pig#22, 4 hr): 0.461 ng/mL
- effect on cortisol levels [3, 4]: significantly lower
- effect on testosterone levels [3, 4]: significantly lower
- Cortisol, plasma, Mean ([3]; 1 hr): 786 ng/mL
- Cortisol, plasma, Mean ([3]; 2 hr): 660 ng/mL
- Cortisol, plasma, Mean ([3]; 4 hr): 409 ng/mL
- testosterone, plasma, Mean ([3]; 1 hr): 0.501 ng/mL
- testosterone, plasma, Mean ([3]; 2 hr): 0.497 ng/mL
- testosterone, plasma, Mean ([3]; 4 hr): 0.395 ng/mL
- Cyp11 IC60 (Cyp11): 430 nM
- IC60 (Cyp17): 1.78 nM
- Cyp3A4 IC60 (Cyp3A4): 969 nM
